Laboratory results: the NIST ThermoML archive (doi:10.1007/s10765-013-1491-2)
Several values for one entry are separate records, joined by “and”; a condition that tells them apart may be missing. Equal entries are not always repeated. Numbers after ± are expanded uncertainties.

Conditions: 101.33 kPa, Liquid, Alternating current cell with electrodes

## CCCCCC[n+]1ccn(C)c1.O=S(=O)([N-]S(=O)(=O)C(F)(F)F)C(F)(F)F
288.27 K
  electrical conductivity: 0.136 S/m
293.13 K
  electrical conductivity: 0.172 ± 0.0069 S/m
298.1 K
  electrical conductivity: 0.216 ± 0.0087 S/m
303.18 K
  electrical conductivity: 0.268 ± 0.011 S/m
308.13 K
  electrical conductivity: 0.326 ± 0.013 S/m
313.08 K
  electrical conductivity: 0.391 ± 0.016 S/m
323.11 K
  electrical conductivity: 0.544 ± 0.022 S/m
333.01 K
  electrical conductivity: 0.725 ± 0.029 S/m

## CCn1cc[n+](C)c1.O=S(=O)([N-]S(=O)(=O)C(F)(F)F)C(F)(F)F
288.16 K
  electrical conductivity: 0.644 S/m and 0.645 S/m
293.12 K
  electrical conductivity: 0.768 ± 0.031 S/m
298.08 K
  electrical conductivity: 0.905 ± 0.036 S/m
303.15 K
  electrical conductivity: 1.06 ± 0.043 S/m
308.11 K
  electrical conductivity: 1.22 ± 0.049 S/m
313.06 K
  electrical conductivity: 1.39 ± 0.056 S/m
323.07 K
  electrical conductivity: 1.77 ± 0.071 S/m
333.11 K
  electrical conductivity: 2.2 ± 0.088 S/m

## CCOS(=O)(=O)[O-].CCn1cc[n+](C)c1 [1-ethyl-3-methylimidazolium ethyl sulfate]
288.15 K
  electrical conductivity: 0.235 ± 0.0095 S/m
288.16 K
  electrical conductivity: 0.235 ± 0.0095 S/m
293.12 K
  electrical conductivity: 0.302 ± 0.012 S/m
298.08 K
  electrical conductivity: 0.381 ± 0.015 S/m
303.15 K
  electrical conductivity: 0.473 ± 0.019 S/m
308.11 K
  electrical conductivity: 0.576 ± 0.023 S/m
313.07 K
  electrical conductivity: 0.69 ± 0.028 S/m
323.08 K
  electrical conductivity: 0.961 ± 0.038 S/m
333.11 K
  electrical conductivity: 1.28 ± 0.051 S/m

## CCn1cc[n+](C)c1.O=S(=O)([O-])C(F)(F)F [1-ethyl-3-methylimidazolium trifluoromethanesulfonate]
288.15 K
  electrical conductivity: 0.623 ± 0.037 S/m
288.16 K
  electrical conductivity: 0.629 ± 0.038 S/m
293.11 K
  electrical conductivity: 0.747 ± 0.045 S/m
298.16 K
  electrical conductivity: 0.886 ± 0.053 S/m
303.12 K
  electrical conductivity: 1.04 ± 0.062 S/m
308.08 K
  electrical conductivity: 1.2 ± 0.072 S/m
313.16 K
  electrical conductivity: 1.39 ± 0.083 S/m
323.06 K
  electrical conductivity: 1.78 ± 0.11 S/m
333.1 K
  electrical conductivity: 2.24 ± 0.13 S/m
